This note sets out measurements from US3957978A, “Phosphonium anti-parasitics” (American Cyanamid Company, priority 1975, dated 1976).

Where two headings read alike, the source gives them in different places.

This assay relates to Nematospiroides dubius. The assay is described as follows: Evaluation (Efficacy) Test in Mice, Nematospiroides dubius. The format is in vivo. The following applies: for inhibition in vivo at 0.1 %: 0.1 % diet; for inhibition in vivo at 0.003 %: 0.003 % diet; for inhibition in vivo at 0.05 %: 0.05 % diet. From the text: The primary target parasite of this test is Nematospiroides dubius (Family: Heligmosomidae), which is phylogenetically related to certain economically important parasites of domestic and farm animals. Mice are orally inoculated with 20 to 30 infective N. dubius larvae. Mixed infections are obtained by subsequent inoculation with Aspicularis tetraptera and Hymenolepis nana. Eighteen days after inoculation the mice are divided into groups of four. Each group receives one compound at a specified dose rate, either as a single gavage dose or fed continually in the feed. Four groups of five mice each are utilized as infected, untreated controls. […] Those mice receiving single oral doses (SOD) or a single subcutaneous injection (Sc) of 5 mg./kg. to 100 mg./kg. of animal body weight of the compound under test are treated 22 days after inoculation. Eight days after start of treatment (drug diet) and 4 days post treatment (single dose SOD or Sc), the mice are necropsied, the worms recovered and counted. Percent efficacy for Nematospiroides is calculated using the formula: % Efficacy Equals [formula]
The diet used in the test procedures is a standard commercial mouse chow containing meat and bone meal, dried skimmed milk, wheat germ meal, fish meal, animal liver meal, dried beet pulp, ground extended corn, oat middlings, soybean meal, dehydrated alfalfa meal, cane molasses. animal fat preserved with BHA, vitamin B-12 supplement, calcium panthotenate, choline chloride, folic acid, riboflavin supplement, brewer's dried yeast, thiamine, niacin, vitamin A supplement, D activated plant sterol, vitamin E supplement, dicalcium phosphate, iodized salt, ferric ammonium citrate, iron oxide, manganous oxide, cobalt carbonate, copper oxide and zinc oxide; and the desired level of test compound.
When the drug is administered as a single oral dose, the drug is weighed and suspended in 0.2% agar, thoroughly mixed and orally introduced at the required volume.

Where [1] appears, read: Heligmosomoides polygyrus, po, 168 h, drug diet, 7 days, read-out: % Efficacy N.d.
[2] abbreviates: Heligmosomoides polygyrus, po, single oral dose, read-out: % Efficacy N.d.
The mark [3] stands for this setting: Heligmosomoides polygyrus, po, 168 h, drug diet, 0.006 % diet, 7 days, read-out: % Efficacy N.d.
[4] abbreviates: Heligmosomoides polygyrus, po, 168 h, drug diet, 0.0125 % diet, 7 days, read-out: % Efficacy N.d.
[5] abbreviates: Heligmosomoides polygyrus, po, single oral dose, 5 mg/kg, read-out: % Efficacy N.d.
[6] abbreviates: Heligmosomoides polygyrus, po, single oral dose, 10 mg/kg, read-out: % Efficacy N.d.
[7] abbreviates: Heligmosomoides polygyrus, po, single oral dose, 25 mg/kg, read-out: % Efficacy N.d.
The mark [8] stands for this setting: Heligmosomoides polygyrus, sc, subcutaneous, 10 mg/kg, read-out: % Efficacy N.d.
Where [9] appears, read: Heligmosomoides polygyrus, sc, subcutaneous, 25 mg/kg, read-out: % Efficacy N.d.
Setting [10] is: drug diet, 0.006 % diet, 7 days.
The mark [11] stands for this setting: drug diet, 0.0125 % diet, 7 days.
The mark [12] stands for this setting: single oral dose, 10 mg/kg, dosage weight is that of the cation.
[13] abbreviates: single oral dose, 25 mg/kg, dosage weight is that of the cation.
Where [14] appears, read: Heligmosomoides polygyrus, po, 168 h, drug diet, 0.025 % diet, 7 days, read-out: % Efficacy N.d.

As to `Cc1ccc(P(=C[P+](c2ccccc2)(c2ccccc2)c2ccc(C)cc2)(c2ccccc2)c2ccccc2)cc1` [Type II, R1 p-tolyl, X Br], under setting [1], the inhibition in vivo at 0.1 % was determined as 53%. In addition, under setting [2], the inhibition in vivo at 50 mg/kg is 36% and the inhibition in vivo at 100 mg/kg worked out at 89%.

`CC(=P(c1ccccc1)(c1ccccc1)c1ccccc1)[P+](c1ccccc1)(c1ccccc1)c1ccccc1` [Type II, R2 Methyl, X I, Triphenyl[1-(triphenylphosphoranylidene)ethyl]-phosphonium Iodide]: the inhibition in vivo at 0.003 % under setting [1] turned out to be 57%. For the same compound, the inhibition in vivo at 0.006 % under setting [3] came out at 98%. The inhibition in vivo at 0.0125 % under setting [4] was 99%. Moreover, the inhibition in vivo at 5 mg/kg was determined as 65% under setting [5] and 80% (Heligmosomoides polygyrus, sc, subcutaneous, 5 mg/kg, read-out: % Efficacy N.d.). The inhibition in vivo at 10 mg/kg reads like this: under setting [6], 96%; under setting [8], 95%. For the same compound, the inhibition in vivo at 25 mg/kg runs as follows: under setting [7], 98%; under setting [9], 100%.

Consider `C(=P(c1ccccc1)(c1ccccc1)c1ccccc1)[P+](c1ccccc1)(c1ccccc1)c1ccccc1.[Br-]` [Type II, R1 Phenyl, X Br, Triphenyl[(triphenylphosphoranylidene)methyl]-phosphonium Bromide], for which the inhibition in vivo at 5 mg/kg under setting [5] is 32.5%. The inhibition in vivo at 10 mg/kg came out at 65% under setting [6] and 74% under setting [8]. Further, under setting [9], the inhibition in vivo at 25 mg/kg turned out to be 94%. Besides, the “% Efficacy N.d.” value worked out at 94% under setting [10]; 100% under setting [11]; 89% (single oral dose, 25 mg/kg).

As to `C(=P(c1ccccc1)(c1ccccc1)c1ccccc1)[P+](c1ccccc1)(c1ccccc1)c1ccccc1` [Type II, R1 Phenyl, X 2,6-Diiodo-4-nitrophenol] [Triphenyl[(triphenylphosphoranylidene)methyl]-phosphonium-2,6-diiodo-4-nitrophenolate], the “% Efficacy N.d.” value was 41% under setting [10]; 86.5% under setting [11]; 99.5% (drug diet, 0.025 % diet, 7 days); 36.7% (single oral dose, 5 mg/kg, dosage weight is that of the cation); 44.7% under setting [12]; 88.5% under setting [13].

Consider `c1ccc([P+](C[P+](c2ccccc2)(c2ccccc2)c2ccccc2)(c2ccccc2)c2ccccc2)cc1` [Type I, R1 Phenyl, X Br, Methylenebis Triphenylphosphonium Dibromide], for which the inhibition in vivo at 0.025 % under setting [14] turned out to be 100%. In addition, for the setting “Heligmosomoides polygyrus, po, 168 h, drug diet, 0.125 % diet, 7 days, read-out: % Efficacy N.d.”, the inhibition in vivo at 0.125 % is 94%. In addition, the inhibition in vivo at 10 mg/kg under setting [8] stood at 42%. In addition, under setting [9], the inhibition in vivo at 25 mg/kg was 84%. The “% Efficacy N.d.” value stood at 78% under setting [10]; 49% (single oral dose, 5 mg/kg); 51.5% (single oral dose, 10 mg/kg); 95.5% (single oral dose, 25 mg/kg).

As for `CCC(=P(c1ccccc1)(c1ccccc1)c1ccccc1)[P+](c1ccccc1)(c1ccccc1)c1ccccc1` [Type II, R2 Ethyl, X I], the inhibition in vivo at 0.006 % under setting [3] worked out at 46%. Besides, the inhibition in vivo at 0.0125 % under setting [4] was 74%. The inhibition in vivo at 0.025 % under setting [14] is 100%. The inhibition in vivo at 10 mg/kg under setting [6] worked out at 68%. Besides, the inhibition in vivo at 25 mg/kg under setting [7] stood at 75%. Also, under setting [2], the inhibition in vivo at 50 mg/kg amounted to 85%.

Take `C(=P(c1ccccc1)(c1ccccc1)c1ccccc1)[P+](c1ccccc1)(c1ccccc1)c1ccccc1` [Type II, R1 Phenyl, X Br^-.CuBr2]: the inhibition in vivo at 0.025 % under setting [14] came to 100%. Moreover, the inhibition in vivo at 10 mg/kg (Heligmosomoides polygyrus, po, single oral dose, 10 mg/kg, dosage weight is that of the cation, read-out: % Efficacy N.d.) was 43%. Also, the inhibition in vivo at 25 mg/kg (Heligmosomoides polygyrus, po, single oral dose, 25 mg/kg, dosage weight is that of the cation, read-out: % Efficacy N.d.) amounted to 76%. Further, the “% Efficacy N.d.” value under setting [11] is listed as 51%.

As to `CSCC(=P(c1ccccc1)(c1ccccc1)c1ccccc1)[P+](c1ccccc1)(c1ccccc1)c1ccccc1` [Type II, R2 CH3 --S--CH2 --, X Cl, [2-(methylthio)-1-(triphenylphosphoranylidene)-ethyl]triphenylphosphonium Chloride], the inhibition in vivo at 0.025 % under setting [14] was determined as 56%. Further, under setting [1], the inhibition in vivo at 0.05 % was found to be 65% and the inhibition in vivo at 0.1 % was 97%.

For `Cc1ccc(P(=C[P+](c2ccccc2)(c2ccccc2)c2ccccc2)(c2ccccc2)c2ccccc2)cc1`, under setting [1], the inhibition in vivo at 0.05 % is 59% and the inhibition in vivo at 0.1 % is 67%. Under setting [2], the inhibition in vivo at 50 mg/kg was found to be 31% and the inhibition in vivo at 100 mg/kg is 67%.

For the compound `c1ccc(C[P+](C[P+](Cc2ccccc2)(c2ccccc2)c2ccccc2)(c2ccccc2)c2ccccc2)cc1` [Type I, R1 Benzyl, X Br, Methylenebis(benzyldiphenyl)phosphonium Dibromide], the inhibition in vivo at 0.05 % under setting [1] was found to be 73%. Under setting [2], the inhibition in vivo at 50 mg/kg amounted to 79% and the inhibition in vivo at 100 mg/kg amounted to 80%.

Take `c1ccc(CC(=P(c2ccccc2)(c2ccccc2)c2ccccc2)[P+](c2ccccc2)(c2ccccc2)c2ccccc2)cc1` [Type II, R2 Benzyl, X Br]: the inhibition in vivo at 0.0125 % under setting [4] worked out at 89%. Besides, the inhibition in vivo at 0.025 % under setting [14] stood at 96%. In addition, the inhibition in vivo at 0.05 % under setting [1] was found to be 100%. In addition, under setting [7], the inhibition in vivo at 25 mg/kg is 72%. For the same compound, the inhibition in vivo at 50 mg/kg under setting [2] is 100%.

`C(=P(c1ccccc1)(c1ccccc1)c1ccccc1)[P+](c1ccccc1)(c1ccccc1)c1ccccc1.[I-]` [Type II, R1 Phenyl, X I, Triphenyl[(triphenylphosphoranylidene)methyl]-phosphonium Iodide]: the “% Efficacy N.d.” value was determined as 89% under setting [10]; 100% under setting [11]; 26% (single oral dose, 5 mg/kg); 67% (single oral dose, 10 mg/kg); 91% (single oral dose, 25 mg/kg).

For `CCCC(=P(c1ccccc1)(c1ccccc1)c1ccccc1)[P+](c1ccccc1)(c1ccccc1)c1ccccc1` [Type II, R2 n-Propyl, X I], under setting [1], the inhibition in vivo at 0.003 % turned out to be 50%. Under setting [3], the inhibition in vivo at 0.006 % was 86%. Under setting [4], the inhibition in vivo at 0.0125 % amounted to 88%. Further, under setting [14], the inhibition in vivo at 0.025 % is 100%. The inhibition in vivo at 10 mg/kg under setting [6] is 42%. The inhibition in vivo at 25 mg/kg under setting [7] turned out to be 63%. For the same compound, the inhibition in vivo at 50 mg/kg under setting [2] was determined as 100%.

For `Cc1ccc([P+](C[P+](c2ccccc2)(c2ccccc2)c2ccc(C)cc2)(c2ccccc2)c2ccccc2)cc1` [Type I, R1 p-tolyl, X Br, Methylenebis(diphenyl-p-tolyl) Phosphonium Dibromide], the inhibition in vivo at 0.1 % under setting [1] was found to be 57%. Moreover, under setting [2], the inhibition in vivo at 50 mg/kg is 57% and the inhibition in vivo at 100 mg/kg worked out at 75%.

For `COc1cccc(CC(=P(c2ccccc2)(c2ccccc2)c2ccccc2)[P+](c2ccccc2)(c2ccccc2)c2ccccc2)c1` [Type II, R2 m-methoxybenzyl, X Cl], the inhibition in vivo at 0.0125 % under setting [4] was 58%. Also, the inhibition in vivo at 0.025 % under setting [14] was determined as 88%. Also, the inhibition in vivo at 0.05 % under setting [1] worked out at 100%. Under setting [2], the inhibition in vivo at 50 mg/kg was 58% and the inhibition in vivo at 100 mg/kg is 76%.

Turning to `c1ccc([P+](C[P+](c2ccccc2)(c2ccccc2)c2ccccc2)(c2ccccc2)c2ccccc2)cc1` [Type I, R1 Phenyl, X Cl, methylenebis triphenylphosphonium dichloride], under setting [3], the inhibition in vivo at 0.006 % is 85%. Moreover, the inhibition in vivo at 0.0125 % under setting [4] turned out to be 100%. Further, the inhibition in vivo at 25 mg/kg under setting [7] turned out to be 96.5%. The “% Efficacy N.d.” value was 85% (single oral dose, 5 mg/kg) and 84% (single oral dose, 10 mg/kg).

With `C(=P(c1ccccc1)(c1ccccc1)c1ccccc1)[P+](c1ccccc1)(c1ccccc1)c1ccccc1` [Type II, R1 Phenyl, X not printed], where the note is “Heligmosomoides polygyrus, po, single oral dose, 5 mg/kg, dosage weight is that of the cation, read-out: % Efficacy N.d.”, the inhibition in vivo at 5 mg/kg was 49%. In addition, the “% Efficacy N.d.” value reads like this: under setting [10], 85%; under setting [11], 100%; under setting [12], 63%; under setting [13], 94%.
